Holding throughout (test): Cysteine liganding, probe competition
Holding throughout (type): binding

For assay [1], the target named is T1, TRIP12 E3 ubiquitin-protein ligase TRIP12 (Homo sapiens, UniProt Q14669).
T1 construct: Cells were resuspended in cold PBS on ice and sonicated with a probe sonicator to achieve lysis; endogenous in cells
As to conditions: TRIP12 Res# 1959, uniprot Q14669. In short, it runs like this: (§1)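 Lysates from probe-sonicated cells in PBS (5 mg/ml proteome) were exposed to compound for 1 hr at 25° C, then labelled with desthiobiotin iodoacetamide probe (10 mM stock) for 1 hr at 25° C. Probe-tagged peptides were streptavidin-enriched after trypsin digestion.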

Assay [2] has as its target T2, VDAC2 Voltage-dependent anion-selective channel protein (Homo sapiens, UniProt P45880).
T2 construct: Cells were resuspended in cold PBS on ice and sonicated with a probe sonicator to achieve lysis; endogenous in cells
In short, it runs like this: as §1

For assay [3], the target named is T3, VDAC3 Voltage-dependent anion-selective channel protein (Homo sapiens, UniProt Q9Y277).
T3 construct: Cells were resuspended in cold PBS on ice and sonicated with a probe sonicator to achieve lysis; endogenous in cells
The note with it: VDAC3 Res# 229, uniprot Q9Y277. The method, boiled down:
as §1

For assay [4], the target named is T4, ALDH1L2 Mitochondrial 10-formyltetrahydrofolate dehydrogen (Homo sapiens, UniProt Q3SY69).
T4 construct: 200 μL of lysate containing 5 mg/ml proteome was treated with 2 μL of 100× compound stock; endogenous in cells
T4 sequence (Q3SY69 1-923): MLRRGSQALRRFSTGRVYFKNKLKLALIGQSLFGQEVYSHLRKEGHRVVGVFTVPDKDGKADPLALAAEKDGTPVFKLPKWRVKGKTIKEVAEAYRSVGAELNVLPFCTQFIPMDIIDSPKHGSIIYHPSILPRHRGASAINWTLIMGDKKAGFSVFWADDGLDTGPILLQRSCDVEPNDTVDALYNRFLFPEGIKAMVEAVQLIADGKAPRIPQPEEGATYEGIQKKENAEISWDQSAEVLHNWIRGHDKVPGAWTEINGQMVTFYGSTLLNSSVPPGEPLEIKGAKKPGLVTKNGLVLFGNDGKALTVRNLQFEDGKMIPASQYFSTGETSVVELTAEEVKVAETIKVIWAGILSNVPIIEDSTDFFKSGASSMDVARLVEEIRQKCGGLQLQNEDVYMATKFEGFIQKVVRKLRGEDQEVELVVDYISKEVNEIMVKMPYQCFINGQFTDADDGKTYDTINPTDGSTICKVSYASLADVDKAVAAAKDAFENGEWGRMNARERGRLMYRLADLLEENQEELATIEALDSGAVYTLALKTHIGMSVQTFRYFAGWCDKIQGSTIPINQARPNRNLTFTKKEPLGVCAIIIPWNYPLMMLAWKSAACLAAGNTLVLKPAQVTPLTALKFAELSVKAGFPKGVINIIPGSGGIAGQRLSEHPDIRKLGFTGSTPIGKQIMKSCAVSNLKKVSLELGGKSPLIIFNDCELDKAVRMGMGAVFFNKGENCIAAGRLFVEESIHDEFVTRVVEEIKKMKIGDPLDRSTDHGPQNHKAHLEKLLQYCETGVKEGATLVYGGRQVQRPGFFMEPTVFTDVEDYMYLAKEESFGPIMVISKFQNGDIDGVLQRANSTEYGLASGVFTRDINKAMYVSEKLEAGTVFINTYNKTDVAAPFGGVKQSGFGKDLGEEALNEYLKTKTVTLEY
The method, boiled down: as §1

T2 sequence (P45880 whole entry): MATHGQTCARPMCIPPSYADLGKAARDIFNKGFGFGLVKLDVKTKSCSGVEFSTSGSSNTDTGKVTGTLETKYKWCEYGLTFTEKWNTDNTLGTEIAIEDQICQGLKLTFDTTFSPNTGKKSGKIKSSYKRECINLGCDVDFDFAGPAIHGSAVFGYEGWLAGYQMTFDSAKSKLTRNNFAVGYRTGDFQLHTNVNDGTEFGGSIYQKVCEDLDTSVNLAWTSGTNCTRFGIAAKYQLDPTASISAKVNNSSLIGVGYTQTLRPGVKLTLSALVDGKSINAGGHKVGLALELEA
T3 sequence (Q9Y277 whole entry): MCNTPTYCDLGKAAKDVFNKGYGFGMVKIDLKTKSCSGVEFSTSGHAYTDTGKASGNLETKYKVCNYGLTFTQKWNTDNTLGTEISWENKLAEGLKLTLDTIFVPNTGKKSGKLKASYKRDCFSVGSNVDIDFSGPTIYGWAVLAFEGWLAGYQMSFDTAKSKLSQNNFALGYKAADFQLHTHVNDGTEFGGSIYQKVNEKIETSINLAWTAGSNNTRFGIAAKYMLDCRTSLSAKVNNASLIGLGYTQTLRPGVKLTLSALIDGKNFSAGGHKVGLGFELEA
T1 sequence (Q14669 with tags, fused parts or gaps): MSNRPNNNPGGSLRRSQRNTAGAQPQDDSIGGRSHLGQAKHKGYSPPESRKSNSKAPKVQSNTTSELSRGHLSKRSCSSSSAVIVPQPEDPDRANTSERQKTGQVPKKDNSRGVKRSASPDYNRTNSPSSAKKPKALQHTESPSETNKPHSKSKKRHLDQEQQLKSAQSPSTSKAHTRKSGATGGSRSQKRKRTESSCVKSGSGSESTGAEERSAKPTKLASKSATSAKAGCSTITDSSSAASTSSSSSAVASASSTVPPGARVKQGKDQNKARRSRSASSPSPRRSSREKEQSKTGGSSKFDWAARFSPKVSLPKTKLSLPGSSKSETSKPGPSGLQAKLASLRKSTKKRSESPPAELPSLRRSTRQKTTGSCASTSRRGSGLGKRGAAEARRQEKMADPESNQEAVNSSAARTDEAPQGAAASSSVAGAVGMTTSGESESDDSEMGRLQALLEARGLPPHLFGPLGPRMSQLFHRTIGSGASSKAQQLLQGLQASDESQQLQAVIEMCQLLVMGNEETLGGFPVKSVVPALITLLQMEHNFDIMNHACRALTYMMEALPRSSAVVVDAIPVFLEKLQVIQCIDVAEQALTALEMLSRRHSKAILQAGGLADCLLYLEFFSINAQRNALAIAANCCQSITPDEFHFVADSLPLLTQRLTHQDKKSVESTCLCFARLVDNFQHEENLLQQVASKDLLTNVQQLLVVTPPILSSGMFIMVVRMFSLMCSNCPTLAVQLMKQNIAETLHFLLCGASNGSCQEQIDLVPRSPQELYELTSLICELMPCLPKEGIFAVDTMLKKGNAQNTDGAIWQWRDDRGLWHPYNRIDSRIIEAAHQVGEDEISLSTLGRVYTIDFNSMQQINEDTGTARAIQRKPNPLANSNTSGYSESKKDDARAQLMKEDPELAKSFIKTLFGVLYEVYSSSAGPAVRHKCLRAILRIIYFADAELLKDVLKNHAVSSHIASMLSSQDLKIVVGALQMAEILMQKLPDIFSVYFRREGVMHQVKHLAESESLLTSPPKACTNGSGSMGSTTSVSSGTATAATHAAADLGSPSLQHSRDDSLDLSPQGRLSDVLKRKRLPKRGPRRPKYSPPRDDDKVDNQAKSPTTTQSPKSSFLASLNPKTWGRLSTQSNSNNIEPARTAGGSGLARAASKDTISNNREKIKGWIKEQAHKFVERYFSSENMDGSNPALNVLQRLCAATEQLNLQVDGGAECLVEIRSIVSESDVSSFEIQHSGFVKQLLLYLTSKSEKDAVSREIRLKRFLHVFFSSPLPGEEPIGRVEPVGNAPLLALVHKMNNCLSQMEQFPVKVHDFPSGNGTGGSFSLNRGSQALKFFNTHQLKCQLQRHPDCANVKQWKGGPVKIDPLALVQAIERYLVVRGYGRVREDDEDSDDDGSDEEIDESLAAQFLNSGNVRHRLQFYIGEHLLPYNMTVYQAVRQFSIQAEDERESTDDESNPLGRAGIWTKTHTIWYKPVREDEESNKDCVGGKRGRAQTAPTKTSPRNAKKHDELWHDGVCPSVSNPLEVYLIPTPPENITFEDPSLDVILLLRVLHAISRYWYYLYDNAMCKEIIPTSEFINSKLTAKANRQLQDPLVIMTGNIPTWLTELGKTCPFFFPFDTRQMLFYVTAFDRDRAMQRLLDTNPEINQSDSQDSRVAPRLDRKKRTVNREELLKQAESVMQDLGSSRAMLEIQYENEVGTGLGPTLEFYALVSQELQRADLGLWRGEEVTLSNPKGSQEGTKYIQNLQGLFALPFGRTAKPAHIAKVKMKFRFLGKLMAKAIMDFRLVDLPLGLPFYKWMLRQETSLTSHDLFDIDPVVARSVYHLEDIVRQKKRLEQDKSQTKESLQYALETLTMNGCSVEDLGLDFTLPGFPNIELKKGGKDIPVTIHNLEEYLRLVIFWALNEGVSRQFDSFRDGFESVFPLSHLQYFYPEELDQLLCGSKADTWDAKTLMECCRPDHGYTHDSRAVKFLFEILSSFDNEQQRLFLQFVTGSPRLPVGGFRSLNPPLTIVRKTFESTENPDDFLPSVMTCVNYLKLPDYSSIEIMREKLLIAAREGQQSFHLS

As to `COc1ccc2c(c1)CCCN2C(=O)CCl` [KB02], the Liganded result in assay [1] is on record as “YES”; in assay [2] (VDAC2 Res# 210, uniprot P45880), “YES”; in assay [2] (VDAC2 Res# 227, uniprot P45880) it was “YES”; in assay [3], “YES”.
As for `O=C(CCl)Nc1cc(C(F)(F)F)cc(C(F)(F)F)c1` [KBO3], the Liganded entry in assay [4] (ALDH1L2 Res# 707, uniprot Q3SY69) was “YES”. In assay [4] (uniprot Q3SY69), the “100 Max” value came to 52.7, the 100 ave is reported as 52.7 and the 500 ave was determined as 77.55. In addition, the “500 Max” value in assay [4] (uniprot Q3SY69, in % (unit assumed)) is given as 77.55.

These data come from US20200239530A1, “COMPOUNDS AND METHODS OF MODULATING PROTEIN DEGRADATION” (Vividion Therapeutics, Inc., priority 2017, published 2020).
